In this series the target is T1, Human TLR7 (Homo sapiens, UniProt Q9NYK1).
T1 construct: expressed in transfected cells; host or cells: HEK293 (ATCC No. CRL-1573)
T1 sequence (Q9NYK1 27-1049): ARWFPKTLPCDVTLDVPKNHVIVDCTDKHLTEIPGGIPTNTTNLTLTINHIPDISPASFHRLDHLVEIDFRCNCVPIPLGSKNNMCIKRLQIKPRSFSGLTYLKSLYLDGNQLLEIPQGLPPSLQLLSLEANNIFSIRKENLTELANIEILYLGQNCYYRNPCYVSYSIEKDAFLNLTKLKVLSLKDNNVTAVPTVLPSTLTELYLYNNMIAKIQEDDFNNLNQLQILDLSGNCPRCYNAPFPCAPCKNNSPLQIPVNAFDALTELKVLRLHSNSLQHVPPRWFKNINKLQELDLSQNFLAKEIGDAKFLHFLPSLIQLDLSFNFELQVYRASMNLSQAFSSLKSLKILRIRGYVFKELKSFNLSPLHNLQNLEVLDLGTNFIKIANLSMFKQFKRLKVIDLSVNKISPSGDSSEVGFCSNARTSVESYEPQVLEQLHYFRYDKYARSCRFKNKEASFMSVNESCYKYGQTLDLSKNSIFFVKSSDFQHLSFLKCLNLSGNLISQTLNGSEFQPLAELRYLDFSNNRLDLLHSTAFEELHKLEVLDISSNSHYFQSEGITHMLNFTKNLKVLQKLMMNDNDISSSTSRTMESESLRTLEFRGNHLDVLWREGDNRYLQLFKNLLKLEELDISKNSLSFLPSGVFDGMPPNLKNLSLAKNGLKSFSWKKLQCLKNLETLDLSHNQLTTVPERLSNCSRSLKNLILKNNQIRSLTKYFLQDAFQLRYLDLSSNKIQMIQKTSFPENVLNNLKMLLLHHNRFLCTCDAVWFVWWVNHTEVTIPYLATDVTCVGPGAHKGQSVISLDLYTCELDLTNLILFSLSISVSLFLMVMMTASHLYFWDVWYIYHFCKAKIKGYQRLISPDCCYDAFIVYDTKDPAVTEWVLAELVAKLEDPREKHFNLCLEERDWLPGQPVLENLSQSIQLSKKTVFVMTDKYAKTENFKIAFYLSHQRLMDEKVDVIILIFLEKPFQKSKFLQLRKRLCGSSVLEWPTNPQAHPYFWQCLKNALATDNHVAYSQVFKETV
As to the kind of experiment: NFκB luciferase induction in HEK293 cells transfected with human TLR7. The note with it: transfected HEK293 cell line; poly(T), poly(A) or poly(C) oligonucleotide with 3 μM IRM1; overnight. The format is cell-based.

“Also recorded” adds a separate entry of the source. Oligonucleotides are written 5' to 3', each unit as a sugar letter and its base; * is a phosphorothioate linkage, no mark a phosphodiester; rarer units and linkages stand in square brackets, end groups in braces. Plain capitals give the bases only. d = 2'-deoxy (DNA)

Data on two substances can be found in patent publication US20110070575A1, “Immunomodulatory Compositions, Combinations and Methods” (Coley Pharmaceutical Group, Inc., priority 2004, published 2011).

Method: Human TLR7 and NFκβ were transfected into human epithelial kidney 293 (HEK293, American Type Culture Collection, Manassas, Va., ATCC No. CRL-1573) cells as described in U.S. Patent Publication Nos. U82004/0014779 and US2004/0171086. The selected transfected cells were counted and resuspended to a concentration of 5×10^5 cell per mL in culture media.
Cultured media was prepared from complete DMEM media (Biosource International Inc., Camarillo, Calif.), without phenol red. Fetal bovine serum (Biosource International Inc.) was added to a final concentration of 10% (vol/vol.), sodium pyruvate (Biosource International Inc.) was added to 1 mM; L-glutamine (Biosource International Inc.) was added to 2 mM; penicillin (Biosource International Inc.) was added to 100 U/mL; streptomycin (Biosource International Inc.) was added to 100 μg/mL.
100 μL aliquots of cells were placed in the wells of a white-walled, white-bottomed 96-well plate (Corning, Inc. Corning, N.Y.). […] As a negative control, some cell aliquots were incubated without a stimulus (media control). In all cases, the cells were incubated overnight at 37° C. with 5% CO2 and 98% humidity.
After the cells incubated overnight, 100 μL volume of reconstituted LucLight Plus (Packard Instruments, Meriden, Conn.) was added to each aliquot of cells. Each well of the plate was read on a L-max luminometer (Molecular Devices, Sunnyvale, Calif.). The data is expressed as fold increase of luciferase induction in cell aliquots incubated with the indicated stimulant compared to the negative control.
HEK293 cells expressing human TLR7 were prepared as described in Example 1. […] As a negative control, some cell aliquots were incubated without a stimulus (media control).
After the cells incubated overnight, the cells were analyzed as described in Example 1. The data is expressed as fold increase of luciferase induction in cell aliquots incubated with the indicated stimulant compared to the negative control.

With “poly(T): 18-mer poly(T) oligonucleotide, 5′-TTTTTTTTTTTTTTTTTT-3′”, the “inhibition of smIRM-induced TLR7-mediated biological activity (fold increase of luciferase induction)” value was “inhibition; also recorded: capable of limiting TLR7-mediated biological activity”.

Turning to “poly(A): 18-mer poly(A) oligonucleotide, 5′-AAAAAAAAAAAAAAAAAA-3′ (dA*dA*dA*dA*dA*dA*dA*dA*dA*dA*dA*dA*dA*dA*dA*dA*dA*dA)”, the “inhibition of smIRM-induced TLR7-mediated biological activity (fold increase of luciferase induction)” value is on record as “inhibition; also recorded: capable of limiting TLR7-mediated biological activity”.
